Laboratory results as given in patent US12612405B2, “Crystalline form of 1-(8-Bromopyrido[2,3-E][1,2,4]triazolo[4,3-a]pyrazin-4-Yl)-Nmethylazetidin-3-amine hydrogen sulfate monohydrate” (JW PHARMACEUTICAL CORPORATION, priority 2021, dated 2026).
“Also recorded” adds a separate entry of the source.

Tests used:
[1] = test system: inflammatory cells such as mast cells and eosinophils; conditions: cited from earlier work
[2] = Solubility in common crystallization solvents; conditions: common crystallization solvents including alcohols
histamine 4 receptor = histamine 4 receptor (Homo sapiens, UniProt Q9H3N8); conditions: cited from earlier work
[3] = Interconversions between the crystalline forms (stability at rt, in suspension, during drying); format: physicochemical; conditions: for solid phase stability / transition at room temperature: rt, ambient conditions; for stability during drying: drying process; for stability under conditions / suspensions with high water content: high amounts of water
From the text: The table below summarizes interconversions between the different forms and other issues which may be relevant to their use in pharmaceutical compositions: […]

[4] = Dynamic Vapor Sorption (DVS); format: physicochemical; conditions: for hygroscopicity classification: according to Ph. Eur.
Procedure: Instrument: DVS Advantage
Methods: About 5 mg of the substance was added into Al pan and exposed to stepwise RH changes during two consecutive cycles according to; 20-30-40-50-60-70-80-70-60-50-40-30-20-10-0-10-20-30-40-50-60-70-80-90-80-70-60-50-40-30-20-10-0/RH using open loop mode. The experiments were performed using a gas flow rate of 200 ml/min and at 25° C. The dm/dt criteria applied was 0.001 weight-%/min during a 5 minutes window, with a maximum allowed time of 150 minutes for all steps, except for the steps at 0% RH which had no criteria but were set to 6 h.

[5] = Solubility according to Ph. Eur. and USP; format: physicochemical
From the text: The solubility of form B according to Ph.

[6] = Thermal stability by TGA / DSC; format: physicochemical
Procedure: TGA experiments were conducted using a TGA550 instrument from TA Instruments. About 1-10 mg of sample was loaded into a ceramic pan for the measurements. The sample temperature was ramped from 25 to 500° C. at 10° C./min. Nitrogen was used as the purge gas at a flow rate of 50 mL/min.
DSC analyses were carried out on a TA Instruments Q20 Differential Scanning Calorimeter. Accurately weighed samples were placed in crimped aluminum pans. Each sample was heated under nitrogen at a rate of 10° C./minute to a maximum of 300° C. Indium metal was used as the calibration standard.

histamine 4 receptor, sequence (Q9H3N8 whole entry): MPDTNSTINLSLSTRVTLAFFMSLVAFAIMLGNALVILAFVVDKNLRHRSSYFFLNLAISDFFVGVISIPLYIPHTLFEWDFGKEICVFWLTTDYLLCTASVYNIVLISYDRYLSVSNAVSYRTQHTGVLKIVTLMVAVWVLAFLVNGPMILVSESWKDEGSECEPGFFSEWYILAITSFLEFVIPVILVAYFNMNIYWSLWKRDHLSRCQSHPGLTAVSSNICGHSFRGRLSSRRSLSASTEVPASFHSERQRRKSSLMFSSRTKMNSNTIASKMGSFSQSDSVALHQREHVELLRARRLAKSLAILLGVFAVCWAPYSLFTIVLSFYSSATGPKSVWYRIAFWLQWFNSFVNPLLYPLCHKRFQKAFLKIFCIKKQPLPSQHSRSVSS

In the case of CNC1CN(c2nc3ncc(Br)cc3n3cnnc23)C1 [1-(8-bromopyrido[2,3-e][1,2,4]triazolo[4,3-a]pyrazin-4-yl)-N-methylazetidin-3-amine], the “effect against histamine induced infiltration of inflammatory cells” value [1] is given as “suppressive effects”, the “solubilities in common solvents used for crystallizations” value [2] is given as “very low solubilities” and the “histamine 4 receptor inhibitory effect” value (histamine 4 receptor) is given as “strong histamine 4 receptor inhibitory effect”.

For CNC1CN(c2nc3ncc(Br)cc3n3cnnc23)C1.O=S(=O)(O)O [Form A, 1-(8-bromopyrido[2,3-e][1,2,4]triazolo[4,3-a]pyrazin-4-yl)-N-methylazetidin-3-amine hydrogen sulfate], the “solid phase stability / transition at room temperature” value (shortened to “solid phase stability / transition”) ([3]; hydrogen sulfate) was “that undergoes solid phase transition to form B at rt over time”.

In the case of CNC1CN(c2nc3ncc(Br)cc3n3cnnc23)C1.O.O=S(=O)(O)O [Form B, 1-(8-bromopyrido[2,3-e][1,2,4]triazolo[4,3-a]pyrazin-4-yl)-N-methylazetidin-3-amine hydrogen sulfate monohydrate], the “water absorbed (DVS)” value ([4]; 25° C., between 10 and 80% RH) is reported as “By (DVS) it was demonstrated that form B absorbs 0.2%”, the hygroscopicity classification ([4]; DVS) is reported as “considered non-hygroscopic according to Ph. Eur. 5. (the increase in mass of a drug substance between about 0% to 80% relative humidity is less than 0.2% by weight)” and the solubility ([5]; 1-4-dioxane) is reported as “insoluble”. For the same compound, the solubility ([5]; 1-propanol) was “insoluble”, the solubility ([5]; 2-propanol) was “insoluble” and the solubility ([5]; acetone) was “insoluble”. For the same compound, the solubility ([5]; chloroform) was “insoluble”, the solubility ([5]; dimethyl sulfoxide) was “Soluble” and the solubility ([5]; dimethylformamide) was “slightly soluble”. For the same compound, the solubility ([5]; ethanol) was “insoluble”, the solubility ([5]; ethyl acetate) was “insoluble” and the solubility ([5]; isopropyl acetate) was “insoluble”. The solubility ([5]; methanol) was “very slightly soluble”, the solubility ([5]; methyl tert-butyl ether) was “insoluble” and the solubility ([5]; n-butyl acetate) was “insoluble”. The solubility ([5]; tert-amyl alcohol) was “insoluble”, the solubility ([5]; tetrahydrofuran) was “insoluble” and the solubility ([5]; water) was “sparingly soluble”. The solubility ([5]; xylene) was “insoluble”.

For CNC1CN(c2nc3ncc(Br)cc3n3cnnc23)C1.O=S(=O)(O)O [Form C, 1-(8-bromopyrido[2,3-e][1,2,4]triazolo[4,3-a]pyrazin-4-yl)-N-methylazetidin-3-amine hydrogen sulfate], the “phase transition when humidity increased to 90%” value ([4]; DVS, humidity increased to 90%) was “observed and partial phase transition to the non-stoichiometric”, the hygroscopicity classification ([4]; DVS) was “is just in the range for being slightly hygroscopic. DVS” and the “water uptake at increased relative humidity” value ([4]; increased relative humidity) was “The anhydrate significantly takes up water at increased”. For the same compound, the “stability in liquid environment containing more than 20% water” value ([3]; liquid environment, more than 20% water) was 20% water form C will not be stable and therefore can be.

In the case of CNC1CN(c2nc3ncc(Br)cc3n3cnnc23)C1.O=S(=O)(O)O [Form D, 1-(8-bromopyrido[2,3-e][1,2,4]triazolo[4,3-a]pyrazin-4-yl)-N-methylazetidin-3-amine hydrogen sulfate], the “solid phase stability / transition” value ([3]; hydrogen sulfate) is reported as “solid phase transformation to form C” and the “stability in suspension formulations” value ([3]; suspension formulations, hydrogen sulfate) is reported as “converts to forms F, I, or N depending on the conditions”.

For CNC1CN(c2nc3ncc(Br)cc3n3cnnc23)C1.O=S(=O)(O)O [Form F, 1-(8-bromopyrido[2,3-e][1,2,4]triazolo[4,3-a]pyrazin-4-yl)-N-methylazetidin-3-amine hydrogen sulfate], the stability during drying ([3]; hydrogen sulfate) was “Converts to another form during drying process. The water can; also recorded: very easily be dried off” and the “stability under conditions / suspensions with high water content” value ([3]; hydrogen sulfate) was “with high water content form F converts to form I”.

In the case of CNC1CN(c2nc3ncc(Br)cc3n3cnnc23)C1.O=S(=O)(O)O [Form I, 1-(8-bromopyrido[2,3-e][1,2,4]triazolo[4,3-a]pyrazin-4-yl)-N-methylazetidin-3-amine hydrogen sulfate], the stability during drying ([3]; hydrogen sulfate) is reported as “not stable during drying at room temperature where it; also recorded: converts to form K, which then converts to form C at room; also recorded: product as it converts to form C in drying processes” and the “stability under conditions / suspensions with high water content” value [3] is reported as “the crystal structure. The dihydrate form I is the most stable”.

With CNC1CN(c2nc3ncc(Br)cc3n3cnnc23)C1.O=S(=O)(O)O [Form K, 1-(8-bromopyrido[2,3-e][1,2,4]triazolo[4,3-a]pyrazin-4-yl)-N-methylazetidin-3-amine hydrogen sulfate] the stability during drying ([3]; hydrogen sulfate) was “Form K converts to form C in drying processes” and the “solid phase stability / transition” value ([3]; hydrogen sulfate) was “Form K converts to form C at room temperature”.

With CNC1CN(c2nc3ncc(Br)cc3n3cnnc23)C1.O=S(=O)(O)O [Form M, 1-(8-bromopyrido[2,3-e][1,2,4]triazolo[4,3-a]pyrazin-4-yl)-N-methylazetidin-3-amine hydrogen sulfate] the “broad endothermic event due to water loss and breakdown of the crystal lattice” value [6] was 44 °C, the “temperature of weight loss (TGA curve)” value ([6]; TGA) was 50 °C and the thermal stability ([6]; hydrogen sulfate) was “Form M is a monohydrate but loses water and melts at very; also recorded: this low thermal stability form M is not suitable for”.

In the case of CNC1CN(c2nc3ncc(Br)cc3n3cnnc23)C1.O=S(=O)(O)O [hydrogen sulfate salt, 1-(8-bromopyrido[2,3-e][1,2,4]triazolo[4,3-a]pyrazin-4-yl)-N-methylazetidin-3-amine hydrogen sulfate], the “solubilities in common solvents used for crystallizations” value [2] is reported as “very low solubilities”.
